Source: ChEMBL document CHEMBL5370621, “Design, Synthesis, and Biological Evaluation of Novel Thioureidobenzamide (TBA) Derivatives as HBV Capsid Assembly Modulators” (J Med Chem, 2023)

Tests used:
[1] = Selectivity index, ratio of CC50 for cytotoxicity against human HePAD38 cells to EC50 for antiviral activity against Hepatitis B virus infected in human HePAD38 cells; type: toxicity, cell-based; details: read-out: Ratio CC50/EC50
Hepatitis B virus = assay: Antiviral activity against Hepatitis B virus infected in human HePAD38 cells assessed as inhibition of viral DNA replication by qPCR analysis; type: functional, organism-based
[2] = Cytotoxicity against human HePAD38 cells assessed as reduction in cell viability incubated for 72 hrs by CCK8 assay; type: toxicity, cell-based
Core antigen = Core antigen (Hepatitis B virus, UniProt Q03732); assay: Inhibition of fluorescent-labeled capsid assembly in Hepatitis B virus incubated for 1 hr by fluorescence based analysis
Chain of Core antigen (Q03732 whole entry): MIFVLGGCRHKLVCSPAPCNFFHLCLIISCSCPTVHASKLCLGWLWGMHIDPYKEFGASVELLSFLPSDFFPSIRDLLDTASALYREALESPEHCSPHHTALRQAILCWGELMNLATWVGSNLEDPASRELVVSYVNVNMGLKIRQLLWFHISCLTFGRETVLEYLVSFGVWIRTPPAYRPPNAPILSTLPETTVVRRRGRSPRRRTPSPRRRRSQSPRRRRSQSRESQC

| Compound | selectivity ratio [1] | EC50 (Hepatitis B virus) [µM] | CC50 at 72 h [2] [µM] | IC50 (Core antigen) [µM] |
| --- | --- | --- | --- | --- |
| CCC(CC)NC(=O)Nc1cc(C(=O)Nc2ccc(F)c(C)c2)c(Br)cc1F | 18.2 | 0.99 | 18.1 | – |
| Cc1cc(NC(=O)c2cc(NC(=S)NCc3ccc(B(O)O)cc3)c(F)cc2Br)ccc1F | 106 | 0.029 | 3.08 | – |
| Cc1cc(NC(=O)c2cc(NC(=O)C3CCCCC3)c(F)cc2Br)ccc1F | 15.3 | 1.35 | 20.7 | – |
| O=C(Nc1ccc(F)cc1)c1cc(S(=O)(=O)NC2CCCC2)c(F)cc1Br | 74.4 | 0.78 | 58 | – |
| O=C(Nc1ccc(F)c(Cl)c1)c1cc(S(=O)(=O)N[C@H]2CCOC2)c(F)cc1Br | 21.9 | 0.94 | 20.6 | – |
| Cc1cc(NC(=O)c2cc(NC(=O)NC(C)C)c(F)cc2Br)ccc1F | 16.6 | 1.15 | 19.1 | – |
| Cc1cc(NC(=O)c2cc(NC(=S)NCc3cc(F)cc(F)c3)c(F)cc2Br)ccc1F | 16.4 | 0.22 | 3.61 | – |
| O=C(Nc1ccc(F)cc1)c1cc(S(=O)(=O)N[C@H]2CCOC2)c(F)cc1Br | > 41.8 | 2.39 | > 100 | – |
| CCOC(=O)C1=C(CN2CCOCC2)NC(c2nccs2)=N[C@H]1c1ccc(C)cc1Br | > 5920 | 0.017 | > 100 | 0.86 |
| COc1ccc(CNC(=O)Nc2cc(C(=O)Nc3ccc(F)c(C)c3)c(Br)cc2F)cc1 | 56.1 | 0.087 | 4.88 | – |
| O=C(Nc1ccc(F)c(C(F)(F)F)c1)c1cc(S(=O)(=O)N[C@H]2CCOC2)c(F)cc1Br | > 19.8 | 5.06 | > 100 | – |
| Cc1cc(CNC(=S)Nc2cc(C(=O)Nc3ccc(F)c(C)c3)c(Br)cc2F)ccc1F | 37.1 | 0.1 | 3.71 | – |
| Cc1cc(NC(=O)c2cc(NC(=S)NCc3ccc(C(F)(F)F)cc3)c(F)cc2Br)ccc1F | 16.1 | 0.2 | 3.22 | – |
| Cc1cc(NC(=O)c2cc(NC(=O)C3CC3)c(F)cc2Br)ccc1F | 155 | 0.54 | 84 | – |
| Cc1cc(NC(=O)c2cc(NC(=S)NC(C)C)c(F)cc2Br)ccc1F | > 714 | 0.14 | > 100 | 0.94 |
| Cc1cc(NC(=O)c2cc(NC(=O)NCc3ccc(F)cc3)c(F)cc2Br)ccc1F | 54.4 | 0.34 | 18.5 | – |
| O=C(Nc1cc(F)c(F)c(F)c1)c1cc(S(=O)(=O)N2CCC(O)CC2)c(F)cc1Br | 1.98 | 1.72 | 3.41 | – |
| C/C=C/C(=O)Nc1cc(C(=O)Nc2ccc(F)c(C)c2)c(Br)cc1F | 14.4 | 1.98 | 28.5 | – |
| Cc1ccc(C(=O)Nc2cc(C(=O)Nc3ccc(F)c(C)c3)c(Br)cc2F)cc1 | 40.1 | 0.52 | 20.9 | – |
| Cc1cc(NC(=O)c2cc(NC(=O)NC3CCC(O)CC3)c(F)cc2Br)ccc1F (centres undefined) | > 13.6 | 7.33 | > 100 | – |
| C=C1[C@H](CO)[C@@H](O)C[C@@H]1n1cnc2c(=O)[nH]c(N)nc21 [ENTECAVIR ANHYDROUS] | 3780 | 0.021 | 79.3 | – |

| Compound | selectivity ratio [1] | EC50 (Hepatitis B virus) [µM] | CC50 at 72 h [2] [µM] | IC50 (Core antigen) [µM] |
| --- | --- | --- | --- | --- |
| Cc1cc(NC(=O)c2cc(NC(=O)C(=O)NC(C)C)c(F)cc2Br)ccc1F | > 496 | 0.2 | > 100 | – |
| CCNC(=S)Nc1cc(C(=O)Nc2ccc(F)c(C)c2)c(Br)cc1F | 242 | 0.18 | 43.6 | – |
| O=C(Nc1ccc(F)c(C(F)(F)F)c1)c1cc(S(=O)(=O)NC2CCCC2)c(F)cc1Br | – | > 20 | > 100 | – |
| Cc1cc(NC(=O)c2cc(NC(=O)C(=O)NC3CC3)c(F)cc2Br)ccc1F | 25.3 | 0.67 | 17 | – |
| Cc1cc(NC(=O)c2cc(NC(=S)NCc3ccc(B(O)O)cc3)c(F)cc2C)ccc1F | 595 | 0.01 | 5.95 | – |
| Cc1cc(NC(=O)c2cc(S(=O)(=O)N[C@H]3CCOC3)c(F)cc2Br)ccc1F | > 164 | 0.61 | > 100 | – |
| Cc1cc(CNC(=O)Nc2cc(C(=O)Nc3ccc(F)c(C)c3)c(Br)cc2F)ccc1F | 10.2 | 0.32 | 3.28 | – |
| COCCC(=O)Nc1cc(C(=O)Nc2ccc(F)c(C)c2)c(Br)cc1F | 27.4 | 3.55 | 97.4 | – |
| Cc1cc(NC(=O)c2cc(NC(=O)Nc3ccc(C(F)(F)F)cc3)c(F)cc2Br)ccc1F | 0.67 | 5.21 | 3.5 | – |
| Nc1ccn([C@@H]2CS[C@H](CO)O2)c(=O)n1 [LAMIVUDINE] | > 25.1 | 3.98 | > 100 | – |
| Cc1cc(NC(=O)c2cc(NC(=O)C(=O)NC3CCCC3)c(F)cc2Br)ccc1F | < 0.87 | > 20 | 17.4 | – |
| Cc1cc(NC(=O)c2cc(NC(=O)NCc3ccc(C(C)(C)C)cc3)c(F)cc2Br)ccc1F | > 42.9 | 2.33 | > 100 | – |
| Cc1cc(NC(=O)c2cc(NC(=O)NCc3ccc(C(F)(F)F)cc3)c(F)cc2Br)ccc1F | 35.6 | 0.33 | 11.8 | – |
| N#Cc1cc(NC(=O)c2cc(S(=O)(=O)NC3CCCC3)c(F)cc2Br)ccc1F | 13.3 | 1.45 | 19.3 | – |
| Cc1cc(NC(=O)c2cc(NC(=O)c3ccc(Br)cc3)c(F)cc2Br)ccc1F | 12.6 | 0.19 | 2.4 | – |
| C=CCNC(=S)Nc1cc(C(=O)Nc2ccc(F)c(C)c2)c(Br)cc1F | 358 | 0.14 | 50.1 | – |
| Cc1cc(NC(=O)c2cc(NC(=O)Nc3cc(F)c(F)c(F)c3)c(F)cc2Br)ccc1F | 2.19 | 1.18 | 2.59 | – |
| Cc1cc(NC(=O)c2cc(NC(=O)NCc3cc(F)cc(F)c3)c(F)cc2Br)ccc1F | 20.7 | 0.18 | 3.72 | – |
| O=C(Nc1cc(F)c(F)c(F)c1)c1cc(S(=O)(=O)NC2CCCC2)c(F)cc1Br | 313 | 0.11 | 34.5 | – |
| Cc1cc(NC(=O)c2cc(NC(=O)NC3CCCC3)c(F)cc2Br)ccc1F | 0.96 | 5.77 | 5.52 | – |
| O=C(Nc1cc(F)c(F)c(F)c1)c1cc(S(=O)(=O)N[C@H]2CCOC2)c(F)cc1Br | 18.8 | 4.7 | 88.2 | – |

| Compound | selectivity ratio [1] | EC50 (Hepatitis B virus) [µM] | CC50 at 72 h [2] [µM] | IC50 (Core antigen) [µM] |
| --- | --- | --- | --- | --- |
| Cc1cc(NC(=O)c2cc(NC(=O)N3CCC(O)CC3)c(F)cc2Br)ccc1F | > 23 | 4.34 | > 100 | – |
| C=CC(=O)Nc1cc(C(=O)Nc2ccc(F)c(C)c2)c(Br)cc1F | 3.59 | 2.22 | 7.98 | – |
| Cc1cc(NC(=O)c2cc(NC(=O)c3ccc(C(F)(F)F)cc3)c(F)cc2Br)ccc1F | 4.83 | 1.01 | 4.88 | – |
| O=C(Nc1ccc(F)c(F)c1)c1cc(S(=O)(=O)N[C@H]2CCOC2)c(F)cc1Br | 67.8 | 0.94 | 63.7 | – |
| Cc1cc(NC(=O)c2cc(NC(=O)C3CCCC3)c(F)cc2Br)ccc1F | > 93.5 | 1.07 | > 100 | – |
| Cc1cc(NC(=O)c2cc(NC(=S)NC(C)C(F)(F)F)c(F)cc2Br)ccc1F (centres undefined) | 710 | 0.024 | 17.1 | – |
| Cc1cc(NC(=O)c2cc(NC(=O)NCc3cccnc3)c(F)cc2Br)ccc1F | > 200 | 0.5 | > 100 | – |
| Cc1cc(NC(=O)c2cc(NC(=O)c3cc(F)c(F)c(F)c3)c(F)cc2Br)ccc1F | 21.8 | 0.83 | 18.1 | – |
| Cc1cc(NC(=O)c2cc(NC(=O)c3ccc(F)cc3)c(F)cc2Br)ccc1F | 2.59 | 0.46 | 1.19 | – |
| Cc1cc(NC(=O)c2cc(S(=O)(=O)NC3CCCC3)c(F)cc2Br)ccc1F | > 227 | 0.44 | > 100 | – |
| Cc1cc(NC(=O)c2cc(NC(=O)c3cccs3)c(F)cc2Br)ccc1F | 129 | 0.66 | 85.1 | – |
| Cc1cc(NC(=O)c2cc(NC(=O)C3CCC3)c(F)cc2Br)ccc1F | 23 | 3.46 | 79.6 | – |
| CCN(CC)S(=O)(=O)c1cc(C(=O)Nc2cc(F)c(F)c(F)c2)c(Br)cc1F | 9.72 | 0.46 | 4.47 | – |
| Cc1cc(NC(=O)c2cc(NC(=O)NCc3cc(F)c(F)c(F)c3)c(F)cc2Br)ccc1F | 5.13 | 0.72 | 3.69 | – |
| CCCc1ccc(C(=O)Nc2cc(C(=O)Nc3ccc(F)c(C)c3)c(Br)cc2F)cc1 | 55.1 | 0.58 | 32 | – |
| N#Cc1cc(NC(=O)c2cc(S(=O)(=O)N[C@H]3CCOC3)c(F)cc2Br)ccc1F | > 15.4 | 6.49 | > 100 | – |
| Cc1cc(NC(=O)c2cc(NC(=O)NCc3ccc(O)cc3)c(F)cc2Br)ccc1F | 16.6 | 0.12 | 1.99 | – |
| Cc1cc(NC(=O)c2cc(NC(=O)c3ccc(C#N)cc3)c(F)cc2Br)ccc1F | 572 | 0.15 | 85.7 | – |
| O=C(Nc1cc(F)cc(F)c1)c1cc(S(=O)(=O)NC2CCCC2)c(F)cc1Br | > 123 | 0.81 | > 100 | – |
